Laboratory results reported in the NIST ThermoML archive (doi:10.1016/j.jct.2009.05.001).
Numbers after ± are expanded uncertainties.

Assay: xn = mol fraction of the nth substance listed
Conditions: 101 kPa, Liquid; for speed of sound: Sing-around technique in a fixed-path interferometer; for mass density: Vibrating tube method

For `CCCCCCO` [hexan-1-ol] + BrCCBr, the speed of sound (308.15 K, x2 = 0) was 1270.2 ± 0.82 m/s, the mass density (308.15 K, x2 = 0) was 808.056 ± 0.14 kg/m3 and the speed of sound (313.15 K, x2 = 0) was 1253.6 ± 0.82 m/s. It also gave a mass density (313.15 K, x2 = 0) of 804.397 ± 0.14 kg/m3.
With `ClC(Cl)C(Cl)Cl` [1,1,2,2-tetrachloroethane] + CCCCCCO the speed of sound (308.15 K, x1 = 0.0688) was 1241.8 ± 0.82 m/s, the speed of sound (308.15 K, x1 = 0.123) was 1220.7 ± 0.81 m/s and the speed of sound (308.15 K, x1 = 0.2457) was 1176.4 ± 0.8 m/s. The speed of sound (308.15 K, x1 = 0.3618) was 1138.6 ± 0.78 m/s, the speed of sound (308.15 K, x1 = 0.4502) was 1112.2 ± 0.78 m/s and the speed of sound (308.15 K, x1 = 0.5583) was 1082.7 ± 0.77 m/s. For the same compound, the speed of sound (308.15 K, x1 = 0.6518) was 1060 ± 0.76 m/s, the speed of sound (308.15 K, x1 = 0.7068) was 1047.9 ± 0.76 m/s and the speed of sound (308.15 K, x1 = 0.7419) was 1040.7 ± 0.75 m/s. It also gave a speed of sound (308.15 K, x1 = 0.7797) of 1033.5 ± 0.75 m/s, a speed of sound (308.15 K, x1 = 0.8315) of 1024.4 ± 0.75 m/s and a speed of sound (308.15 K, x1 = 0.8718) of 1018 ± 0.75 m/s. It also gave a speed of sound (308.15 K, x1 = 0.9179) of 1012.1 ± 0.74 m/s, a speed of sound (308.15 K, x1 = 0.9504) of 1009.1 ± 0.74 m/s and a speed of sound (308.15 K, x1 = 1) of 1008.9 ± 0.74 m/s. For the same compound, the mass density (308.15 K, x1 = 0.0688) was 853.014 ± 0.18 kg/m3, the mass density (308.15 K, x1 = 0.123) was 889.246 ± 0.18 kg/m3 and the mass density (308.15 K, x1 = 0.2457) was 973.918 ± 0.17 kg/m3. It also gave a mass density (308.15 K, x1 = 0.3618) of 1057.58 ± 0.18 kg/m3, a mass density (308.15 K, x1 = 0.4502) of 1123.79 ± 0.21 kg/m3 and a mass density (308.15 K, x1 = 0.5583) of 1208.04 ± 0.24 kg/m3. It also gave a mass density (308.15 K, x1 = 0.6518) of 1283.92 ± 0.28 kg/m3, a mass density (308.15 K, x1 = 0.7068) of 1329.98 ± 0.3 kg/m3 and a mass density (308.15 K, x1 = 0.7419) of 1360.06 ± 0.32 kg/m3. It also gave a mass density (308.15 K, x1 = 0.7797) of 1392.95 ± 0.33 kg/m3, a mass density (308.15 K, x1 = 0.8315) of 1438.91 ± 0.35 kg/m3 and a mass density (308.15 K, x1 = 0.8718) of 1475.7 ± 0.37 kg/m3. The mass density (308.15 K, x1 = 0.9179) was 1518.39 ± 0.4 kg/m3, the mass density (308.15 K, x1 = 0.9504) was 1549.36 ± 0.41 kg/m3 and the mass density (308.15 K, x1 = 1) was 1597.75 ± 0.39 kg/m3. It also gave a speed of sound (313.15 K, x1 = 0.0688) of 1225.3 ± 0.81 m/s, a speed of sound (313.15 K, x1 = 0.123) of 1204.1 ± 0.8 m/s and a speed of sound (313.15 K, x1 = 0.2457) of 1160 ± 0.79 m/s. The speed of sound (313.15 K, x1 = 0.3618) was 1122.3 ± 0.78 m/s, the speed of sound (313.15 K, x1 = 0.4502) was 1096 ± 0.77 m/s and the speed of sound (313.15 K, x1 = 0.5583) was 1066.7 ± 0.76 m/s. For the same compound, the speed of sound (313.15 K, x1 = 0.6518) was 1044.2 ± 0.75 m/s, the speed of sound (313.15 K, x1 = 0.7068) was 1032.3 ± 0.75 m/s and the speed of sound (313.15 K, x1 = 0.7419) was 1025.1 ± 0.75 m/s. The speed of sound (313.15 K, x1 = 0.7797) was 1018 ± 0.75 m/s, the speed of sound (313.15 K, x1 = 0.8315) was 1009.1 ± 0.74 m/s and the speed of sound (313.15 K, x1 = 0.8718) was 1002.8 ± 0.74 m/s. The speed of sound (313.15 K, x1 = 0.9179) was 997.14 ± 0.74 m/s, the speed of sound (313.15 K, x1 = 0.9504) was 994.34 ± 0.74 m/s and the speed of sound (313.15 K, x1 = 1) was 994.15 ± 0.74 m/s. The mass density (313.15 K, x1 = 0.0688) was 849.095 ± 0.18 kg/m3, the mass density (313.15 K, x1 = 0.123) was 885.104 ± 0.18 kg/m3 and the mass density (313.15 K, x1 = 0.2457) was 969.244 ± 0.17 kg/m3. It also gave a mass density (313.15 K, x1 = 0.3618) of 1052.37 ± 0.18 kg/m3, a mass density (313.15 K, x1 = 0.4502) of 1118.17 ± 0.21 kg/m3 and a mass density (313.15 K, x1 = 0.5583) of 1201.9 ± 0.24 kg/m3. For the same compound, the mass density (313.15 K, x1 = 0.6518) was 1277.31 ± 0.27 kg/m3, the mass density (313.15 K, x1 = 0.7068) was 1323.07 ± 0.3 kg/m3 and the mass density (313.15 K, x1 = 0.7419) was 1352.96 ± 0.31 kg/m3. The mass density (313.15 K, x1 = 0.7797) was 1385.63 ± 0.33 kg/m3, the mass density (313.15 K, x1 = 0.8315) was 1431.3 ± 0.35 kg/m3 and the mass density (313.15 K, x1 = 0.8718) was 1467.85 ± 0.37 kg/m3. For the same compound, the mass density (313.15 K, x1 = 0.9179) was 1510.31 ± 0.39 kg/m3, the mass density (313.15 K, x1 = 0.9504) was 1541.12 ± 0.41 kg/m3 and the mass density (313.15 K, x1 = 1) was 1589.36 ± 0.39 kg/m3.
Work on `CCCCCCO` [hexan-1-ol] + ClCCCl yielded a speed of sound (308.15 K, x2 = 0) of 1270.2 ± 0.82 m/s, a mass density (308.15 K, x2 = 0) of 808.056 ± 0.14 kg/m3 and a speed of sound (313.15 K, x2 = 0) of 1253.6 ± 0.82 m/s. It also gave a mass density (313.15 K, x2 = 0) of 804.397 ± 0.14 kg/m3.
`CCCCCCO` [hexan-1-ol] + ClC(Cl)C(Cl)Cl showed a speed of sound (308.15 K, x2 = 0) of 1270.2 ± 0.82 m/s, a mass density (308.15 K, x2 = 0) of 808.056 ± 0.14 kg/m3 and a speed of sound (313.15 K, x2 = 0) of 1253.6 ± 0.82 m/s. It also gave a mass density (313.15 K, x2 = 0) of 804.397 ± 0.14 kg/m3.
